Drawing on PubChem BioAssay (NCI), this text covers GI50 and TGI for 9 compounds.

“And” between values parts separate entries of the source, which are not always exact repeats. Equal values may be shown once.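 The compound was tested at five concentrations on cells cultured in 96-well plates, with a 48-hour exposure period. GI50: concentration for 50% inhibition of growth. TGI: concentration producing complete growth inhibition.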 Residues, ends and D or L forms follow the SMILES beside them. *: point of attachment. Cbz = O=C(OCc1ccccc1)*

Holding throughout (test): NCI-60 cell line screen, 48 h
The subject of assay [1] is MCF7 breast.
Assay [2] deals with K-562 leukemia.
Assay [3] deals with UO-31 renal.
Assay [4] relates to HOP-62 NSCLC.
The subject of assay [5] is SR leukemia.
The test system of assay [6] is HCT-116 colon.
Assay [7] concerns IGROV1 ovarian.
The test system of assay [8] is OVCAR-5 ovarian.
The test system of assay [9] is CCRF-CEM leukemia.
Assay [10] deals with MALME-3M melanoma.

In the case of `CN(C)CCNC(=O)c1ccc2oc3cc4ccccc4c(=O)n3c2c1`, the GI50 was 64.1 µM in [1]; 64.1 µM in assay [2]; 19.6 µM in assay [3]; over 100 µM in assay [4]; 32.9 µM in assay [5]; 41.6 µM in assay [6]. The GI50 in assay [7] was 23.1 µM. For the same compound, the TGI is over 100 µM in assay [1]; over 100 µM in [2]; 47.5 µM in [3]; over 100 µM in assay [4]; over 100 µM in [5]; over 100 µM in [6]. In addition, the TGI in assay [7] is over 100 µM.

As for `CC(C)C[C@@H](C=O)NC(=O)[C@H](CC(C)C)NC(=O)[C@H](CC(C)C)NC(=O)OCc1ccccc1` (Cbz-Leu-Leu-Leu-aldehyde), the GI50 in assay [1] was 0.422 µM; in assay [8], 0.643 µM; in assay [2] it was 0.368 µM; in [3], 0.252 µM; in assay [9] it was 0.378 µM; in assay [5] it was 0.366 µM. Moreover, the GI50 in [6] was 0.294 µM; in assay [7], 0.444 µM. Besides, the TGI is 14 µM in assay [1]; 4.74 µM in assay [8]; over 100 µM in [2]; 0.943 µM in [3]; 64.2 µM in assay [9]; 86.6 µM in assay [5]. The TGI in assay [6] was 1.04 µM; in assay [7] it was 3.08 µM.

For `Oc1ccccc1/C=N\NC(=S)N/N=C/c1ccccc1O`, the GI50 is 2.38 µM in assay [1]; 9.38 µM in [8]; 1.59 µM in [2]; 0.489 µM in assay [3]; 0.648 µM in [9]; 4.22 µM in assay [4]. Also, the GI50 in assay [5] is 1.67 µM; in [6] it was 1.37 µM; in assay [7], 1.53 µM. Besides, the TGI was 40.3 µM in assay [1]; over 100 µM in assay [8]; over 100 µM in assay [2]; 4.91 µM in assay [3]; over 100 µM in assay [9]; over 100 µM in assay [4]. Moreover, the values for the TGI in [5], in [6] and in [7] were over 100 µM, over 100 µM and 16.2 µM, respectively.

Regarding `O=C1CC(CC(OCc2ccccc2)C(OCc2ccccc2)C(COCc2ccccc2)OCc2ccccc2)CC(=O)N1` (stereo unspecified), the TGI was > 100 µM and 31.4 µM in [1]; > 100 µM and 80.8 µM in assay [8]; over 100 µM in [2]; over 100 µM in assay [9]; > 100 µM and 73.1 µM in [4]; > 100 µM and 65.4 µM in [5]. Further, the TGI in [10] was > 100 µM and 32.4 µM; in assay [6], > 100 µM and 34.2 µM; in [7] it was > 100 µM and 33.7 µM. Further, the GI50 in assay [8] is > 100 µM and 24.9 µM; in assay [4], > 100 µM and 26.8 µM; in [10], > 100 µM and 15.5 µM; in [7], > 100 µM and 17.2 µM.

`CC(=O)OCC1OC(n2ncc(=O)[nH]c2=O)C(OC(C)=O)C1OC(C)=O` (stereo unspecified): the TGI in assay [1], in [8], in assay [2], in [9], in assay [4] and in assay [5] was over 100 µM throughout. The TGI in assay [10], in assay [6] and in [7] was over 100 µM in each case.

As to `CCNCCNc1cc(-c2ccc(C(F)(F)F)cc2)c(C#N)c2nc3cc(Cl)c(Cl)cc3n12`, the GI50 in assay [1] is 0.168 µM; in [8] it was 2.03 µM; in [2], 0.183 µM; in [3] it was 1.65 µM; in assay [4] it was 1.96 µM; in assay [5], 0.185 µM. In [6], the GI50 was 0.177 µM. Moreover, the TGI in assay [1] is 0.352 µM; in assay [8], 3.68 µM; in [2], 0.365 µM; in assay [3] it was 3.25 µM; in assay [4] it was 3.56 µM; in [5], 0.439 µM. The compound also gave a TGI in [6] of 0.338 µM.

Regarding `C/C=C(\C)C(=O)O[C@H]1C=CC(=O)O[C@H]1COC(=O)[C@H](C)O`, the GI50 was 3.4 µM in [1]; 18.8 µM in [8]; 3.69 µM in assay [2]; 9.79 µM in assay [3]; 19.8 µM in assay [4]; 2.2 µM in [5]. The GI50 was 5.5 µM in assay [10], 2.72 µM in assay [6] and 10.2 µM in assay [7]. For the same compound, the TGI in assay [1] came out at 14.1 µM; in assay [8] it was 39 µM; in [2], 17.6 µM; in assay [3], 25.5 µM; in assay [4] it was 35.4 µM; in assay [5], 13.4 µM. Also, the TGI in [10] is 15.8 µM; in assay [6] it was 10.9 µM; in assay [7], 33.7 µM.

As to `O=S(=O)(NCCCNc1cc(-c2cn(-c3ccccc3)nc2-c2cccc(O)c2)ccn1)c1ccc(Br)cc1`, the GI50 in assay [1] was 1.76 µM; in [8], 2.12 µM; in assay [2], 0.444 µM; in assay [3] it was 2.17 µM; in [4], 1.88 µM; in assay [5], 1.51 µM. In addition, the GI50 in [6] is 1.71 µM; in assay [7] it was 3.58 µM. For the same compound, the TGI in assay [1] is 5.16 µM; in assay [8], 5.55 µM; in assay [2], 2.89 µM; in [3], 8.95 µM; in [4], 4.59 µM; in [5] it was 5.49 µM. In addition, the TGI in assay [6] was 4.22 µM; in [7], 29 µM.

As to `Nc1nn(C(=O)Nc2c(F)cccc2F)c2ccccc12`, the GI50 is 60 µM in assay [1]; over 100 µM in assay [8]; over 100 µM in assay [2]; 18.6 µM in [3]; 51 µM in assay [4]; 12.9 µM in assay [5]. Besides, the GI50 in assay [10] is over 100 µM; in [6], 34.8 µM; in assay [7], 7.7 µM. Besides, the TGI in assay [1], in [8], in [2], in [3], in assay [4] and in assay [5] was over 100 µM throughout. The TGI in assay [10], in assay [6] and in assay [7] was over 100 µM in each case.
